Data as given in patent US20230047208A1, “RNA Splicing Modulation” (The General Hospital Corporation, priority 2020, published 2023).

What was measured:
[1] = test system: CFTR channel; experiment: CFTR functional assessment, short circuit current (Ussing chamber) in CFBE cells stably expressing c.2988G>A; type: cell-based, human; settings: CFBE c.2988G>A, Compound (I) treated cells, 10 μM ivacaftor acute, apical side
Text: WT CFTR-EMG-i14-i18, CFTR-EMG-i14-i18 harboring c.2988G>A, Flp-In-CFBE, and Flp-In-293 cells stably expressing WT-EMG and c.2988G>A EMG were generated. Both Flpin-293 and Flp-In-CFBE cells lack endogenous CFTR expression (CFBE41o-) and contain a single Flp recombinase target site. Co-transfection of EMG plasmid with pOG44 (a plasmid encoding Flp recombinase) allowed for genomic integration at the FRT site. Hygromycin was used for stable cell selection.
Assessment of CFTR channel function and response to Compound (I) was performed in CFBEs stably expressing c.2988G>A. Briefly, CFBE stable cell lines were plated on snapwell filters. When transepithelial resistance reached ˜200Ω (˜ 5-7 days) as measured using Voltammeter (Physiologic Instruments), cells were treated with Compound (I) at varying doses (0.3 μM to 10 μM) for next 3 days. Filters were mounted in Ussing chambers (Physiological Instruments). A high chloride solution was added to the basolateral chamber and a low chloride solution was added to the apical chamber. After equilibration of currents, 10 μM forskolin (Selleckchem) was added to the basolateral side to activate CFTR channels via cAMP signaling. Currents were allowed to plateau, followed by acute addition of 10 μM ivacaftor at apical side for CFTR potentiation (Selleckchem). Inhibition of CFTR was performed using 10 μM Inh-172 (Selleckchem) added to the apical chamber.
The ability of Compound (I) to rescue chloride channel function was also assessed. CF bronchial epithelial (CFBE) cell lines was generated to stably express the splicing mutation c.2988G>A. Cells were grown in monolayers on filters and treated with increasing doses of Compound (I) (0.3 μM-10 μM) or DMSO for 3 days. Chloride channel function was assessed by measuring short circuit current (Isc) on treated CFBE cells. Forskolin was added to initiate CFTR channel activity via cAMP-mediated signaling, with further channel activation by Ivacaftor and inhibition with Inh-172, a CFTR-specific inhibitor (FIG. 9C, representative Isc tracing). CFTR-specific change in current (ΔIsc±SD) allows for measurement of chloride channel function (FIG. 9C). […] Significant recovery of CFTR function (˜3 fold) was observed following treatment with Compound (I) at 1, 3, 6, and 10 μM for 3 days, with a maximal increase in CFTR function achieved using 3 μM of Compound (I) (ΔIsc=37.168±4.32 μA/cm^2, FIG. 9C).

[2] = test system: ELP1 exon 20; settings: cited from earlier work
[3] = test system: ELP1 exon 20; settings: cited from earlier work; remark: listed apart in the source

| Structure (SMILES) | improvement in CFTR function on acute addition of Ivacaftor [1] [fold] | Percent Spliced In (PSI) change for ELP1 exon 20 splicing ([2]; RNA sequencing after kinetin treatment) | additional exon-usage differences in response to kinetin ([2]; RNA sequencing) | usage differences that induced skipping of the middle exon ([2]; RNA sequencing) | usage differences that promoted inclusion of the middle exon ([2]; RNA sequencing) | doses needed to achieve inclusion of Exon 20 in vivo [3] |
| --- | --- | --- | --- | --- | --- | --- |
| CC(C)(C)c1cc(C(C)(C)C)c(NC(=O)c2c[nH]c3ccccc3c2=O)cc1O [Ivacaftor, reference compound] | ~2 | – | – | – | – | – |
| c1coc(CNc2ncnc3nc[nH]c23)c1 [kinetin, 6-furfurylaminopurine] | – | 0.57 | 42 | 31 | 11 | extremely high doses are necessary |
